The text below walks through data of US20050136481A1, “Systems and methods for predicting the structure and function of multipass transmembrane proteins” (priority 2003, published 2005).

The target in test [1] is T1, rhodopsin (Bos taurus, UniProt P02699). The following applies: Okada et al., 2001; cited from earlier work.
Test [2] has as its target bovine rhodopsin (Bos taurus, UniProt P02699). Briefly: HierDock binding energy calculation (Eq. 1) of retinal ligands docked into the rhodopsin structure. The following applies: all-trans-retinal versus 11-cis-retinal, HierDock Eq. 1. An excerpt:
The negative of the molecular surface of the protein was used to define potential binding regions within the target protein over which the various ligand conformations are to be sampled. The void regions are mapped with spheres generated over the whole target protein using the Sphgen program in DOCK (see Kuntz laboratory at UCSF, San Francisco, Calif.).
To locate the most favorable ligand binding site(s), DOCK 4.0 (Ewing and Kuntz, 1997, incorporated herein by reference) can be used to generate a set of conformations for binding the ligand of interest (e.g. in the case of rhodopsin, 11-cis-retinal—a ligand known to bind to bovine rhodopsin) to each of the overlapping docking regions identified above. For this docking step, a bump filter of 10, a non-distance-dependent dielectric constant of 1.0, and a cutoff of 10 Å may be used for energy evaluation. These values may be adjusted according to specific target proteins. […]
The ligand/protein conformations from Step 5 are further energy-minimized with all atoms (protein, lipid, and ligand) movable using conjugate gradients. The structure with the binding energy calculated by Eq. 1 is selected as: BE1=Energy[ligand in protein complex]−Energy[free Ligand in solvent] […]
Here the energy of the ligand in water is calculated using DREIDING FF and analytical volume Generalized-Born continuum solvation (GBCS) method. […]

Test [3] has as its target T1, rhodopsin. The conditions noted are these: experimental result, retinal ligand/protein complex, Okada et al., 2001; cited from earlier work.

T1 sequence (P02699 whole entry): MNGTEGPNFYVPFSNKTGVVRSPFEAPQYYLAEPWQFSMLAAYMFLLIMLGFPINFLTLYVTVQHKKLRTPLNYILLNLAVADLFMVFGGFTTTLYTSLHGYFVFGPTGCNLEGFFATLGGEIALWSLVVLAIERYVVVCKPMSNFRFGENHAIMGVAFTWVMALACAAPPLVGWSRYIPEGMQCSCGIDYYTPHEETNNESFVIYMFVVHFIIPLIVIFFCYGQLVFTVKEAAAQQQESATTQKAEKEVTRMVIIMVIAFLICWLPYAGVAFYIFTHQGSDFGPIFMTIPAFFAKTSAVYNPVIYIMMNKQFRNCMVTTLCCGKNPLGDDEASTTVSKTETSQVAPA
Chain of bovine rhodopsin (P02699 whole entry): as above

On to `CC1=C(/C=C/C(C)=C/C=C/C(C)=C/C=O)C(C)(C)CCC1` [11-cis-retinal], for which the “effect on G-protein signaling” value in test [1] is reported as “inverse agonist”.
`CC1=C(/C=C/C(C)=C/C=C/C(C)=C/C=O)C(C)(C)CCC1` [all-trans-retinal]: in test [2], the “difference in binding energy” value is listed as 32 kcal/mol.
In the case of `CC1=C(/C=C/C(C)=C/C=C/C(C)=C/C=O)C(C)(C)CCC1` [retinal], the “energy stored upon isomerization in the protein” value in test [3] was 34.7 ± 2.2 kcal/mol.
